Target: bovine cardiac myofibrils (full-length cardiac myosin ATPase in the native sarcomere) (Bos taurus (Bovine), UniProt Q9BE39)
Assay: Skinned bovine cardiac myofibril ATPase assay (PK/LDH-coupled)
Type: biochemical
Conditions: Ca2+ activating to 75% of maximal rate; for CDMF75 IC15: concentration giving 15% inhibition; for IC50: read-out: CDMF75 IC50
Procedure, shortened: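 Inhibition of steady-state ATPase read at 340 nm through a PK/LDH-coupled NADH system (0.5 mM NADH, 1.5 mM PEP). Detergent-skinned bovine cardiac myofibrils, 1 mg/mL, were tested at pH 6.8 in PIPES/MgCl2 with 50 μM ATP and calcium adjusted to give pCa50 or pCa75 activation.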

bovine cardiac myofibrils (full-length cardiac myosin ATPase in the native sarcomere), sequence (Q9BE39 whole entry): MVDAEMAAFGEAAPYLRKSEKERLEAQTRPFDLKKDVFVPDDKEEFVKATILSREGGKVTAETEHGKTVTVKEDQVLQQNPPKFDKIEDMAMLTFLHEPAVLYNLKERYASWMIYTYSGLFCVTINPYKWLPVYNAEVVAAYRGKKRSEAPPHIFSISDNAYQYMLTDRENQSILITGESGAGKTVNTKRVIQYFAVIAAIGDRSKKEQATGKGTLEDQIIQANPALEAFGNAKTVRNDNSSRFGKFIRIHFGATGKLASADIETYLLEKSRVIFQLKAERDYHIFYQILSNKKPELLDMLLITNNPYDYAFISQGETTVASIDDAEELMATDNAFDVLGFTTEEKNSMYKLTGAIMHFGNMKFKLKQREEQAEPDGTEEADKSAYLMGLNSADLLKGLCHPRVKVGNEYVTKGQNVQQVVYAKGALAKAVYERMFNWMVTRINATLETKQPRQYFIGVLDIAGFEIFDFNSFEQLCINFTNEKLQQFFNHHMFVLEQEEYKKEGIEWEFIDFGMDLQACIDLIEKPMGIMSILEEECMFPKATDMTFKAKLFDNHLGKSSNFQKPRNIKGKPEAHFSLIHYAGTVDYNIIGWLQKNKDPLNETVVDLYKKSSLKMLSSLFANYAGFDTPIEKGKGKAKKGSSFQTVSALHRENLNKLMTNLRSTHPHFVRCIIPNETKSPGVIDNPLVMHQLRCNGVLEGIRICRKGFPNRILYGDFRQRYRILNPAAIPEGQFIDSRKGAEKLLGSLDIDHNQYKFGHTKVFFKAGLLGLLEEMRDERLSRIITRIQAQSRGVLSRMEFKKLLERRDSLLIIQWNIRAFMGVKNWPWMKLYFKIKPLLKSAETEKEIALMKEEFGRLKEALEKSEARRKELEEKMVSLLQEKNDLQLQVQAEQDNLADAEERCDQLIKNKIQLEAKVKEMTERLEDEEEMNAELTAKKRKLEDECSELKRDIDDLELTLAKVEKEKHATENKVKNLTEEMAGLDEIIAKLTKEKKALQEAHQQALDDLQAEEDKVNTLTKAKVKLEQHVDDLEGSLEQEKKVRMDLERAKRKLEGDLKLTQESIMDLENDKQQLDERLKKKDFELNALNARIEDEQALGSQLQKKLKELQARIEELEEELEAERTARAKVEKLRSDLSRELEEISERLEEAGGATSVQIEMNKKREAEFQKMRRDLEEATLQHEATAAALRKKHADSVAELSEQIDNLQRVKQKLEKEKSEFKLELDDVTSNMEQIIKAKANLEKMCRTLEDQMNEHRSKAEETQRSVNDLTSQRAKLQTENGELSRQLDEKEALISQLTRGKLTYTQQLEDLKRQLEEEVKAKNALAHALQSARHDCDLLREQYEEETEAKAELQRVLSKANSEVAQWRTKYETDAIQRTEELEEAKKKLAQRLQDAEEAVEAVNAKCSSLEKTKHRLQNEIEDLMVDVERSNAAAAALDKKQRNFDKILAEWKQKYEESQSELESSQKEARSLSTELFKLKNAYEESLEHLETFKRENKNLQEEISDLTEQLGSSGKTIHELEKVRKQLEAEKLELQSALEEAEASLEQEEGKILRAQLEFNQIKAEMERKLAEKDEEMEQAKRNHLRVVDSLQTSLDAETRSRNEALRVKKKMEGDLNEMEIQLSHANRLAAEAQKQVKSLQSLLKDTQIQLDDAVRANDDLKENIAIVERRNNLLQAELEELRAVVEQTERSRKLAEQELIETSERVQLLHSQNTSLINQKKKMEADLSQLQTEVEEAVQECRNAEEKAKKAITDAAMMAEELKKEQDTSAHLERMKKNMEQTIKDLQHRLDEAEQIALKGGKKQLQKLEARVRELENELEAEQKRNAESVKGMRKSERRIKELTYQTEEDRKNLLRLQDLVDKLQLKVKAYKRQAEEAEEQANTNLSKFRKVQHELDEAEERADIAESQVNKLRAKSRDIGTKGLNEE
bovine cardiac myofibrils (full-length cardiac myosin ATPase in the native sarcomere), sequence (P85100 whole entry partner): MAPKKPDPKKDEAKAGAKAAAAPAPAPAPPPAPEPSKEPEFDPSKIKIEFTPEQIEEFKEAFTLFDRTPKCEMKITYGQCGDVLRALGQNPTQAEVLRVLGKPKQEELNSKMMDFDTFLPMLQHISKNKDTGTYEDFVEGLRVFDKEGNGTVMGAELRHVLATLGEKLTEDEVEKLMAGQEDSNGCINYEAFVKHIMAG
bovine cardiac myofibrils (full-length cardiac myosin ATPase in the native sarcomere), sequence (Q3SZE5 whole entry partner): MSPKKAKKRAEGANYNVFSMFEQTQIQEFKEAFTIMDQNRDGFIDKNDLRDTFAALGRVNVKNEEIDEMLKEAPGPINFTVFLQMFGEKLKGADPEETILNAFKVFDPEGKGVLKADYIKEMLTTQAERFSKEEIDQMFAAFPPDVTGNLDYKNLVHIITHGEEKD

Row | CDMF75 IC15 [nM] | IC50 [nM] | SMILES
1 | 500 | 1500 | CCc1nc(-c2ccc3c(c2)CC[C@H]3NC(=O)c2ccnnc2)no1 [Compound 632, (R)-N-(5-(5-ethyl-1,2,4-oxadiazol-3-yl)-2,3-dihydro-1H-inden-1-yl)pyridazine-4-carboxamide]
2 | 200 | 800 | CCc1nc(-c2ccc3c(c2)CC[C@H]3NC(=O)c2nonc2C)no1 [Compound 633, (R)-N-(5-(5-ethyl-1,2,4-oxadiazol-3-yl)-2,3-dihydro-1H-inden-1-yl)-4-methyl-1,2,5-oxadiazole-3-carboxamide]
3 | 500 | 2100 | CCc1nc(-c2ccc3c(c2)CC[C@H]3NC(=O)c2cc(O)no2)no1 [Compound 634, (R)-N-(5-(5-ethyl-1,2,4-oxadiazol-3-yl)-2,3-dihydro-1H-inden-1-yl)-3-hydroxyisoxazole-5-carboxamide]
4 | 300 | 1100 | CCc1nc(-c2ccc3c(c2)CC[C@H]3NC(=O)c2cc(OC)no2)no1 [Compound 635, (R)-N-(5-(5-ethyl-1,2,4-oxadiazol-3-yl)-2,3-dihydro-1H-inden-1-yl)-3-methoxyisoxazole-5-carboxamide]
5 | 600 | 2200 | CCc1nc(-c2ccc3c(c2)CC[C@H]3NC(=O)c2ncc(C)o2)no1 [Compound 636, (R)-N-(5-(5-ethyl-1,2,4-oxadiazol-3-yl)-2,3-dihydro-1H-inden-1-yl)-5-methyloxazole-2-carboxamide]
6 | 3100 | 11600 | CCc1nc(-c2ccc3c(c2)CC[C@H]3NC(=O)c2ccnnc2C)no1 [Compound 637, (R)-N-(5-(5-ethyl-1,2,4-oxadiazol-3-yl)-2,3-dihydro-1H-inden-1-yl)-3-methylpyridazine-4-carboxamide]
7 | 1000 | 3900 | CCc1nc(-c2ccc3c(c2)CC[C@H]3NC(=O)c2cnc(O)o2)no1 [Compound 638, (R)-N-(5-(5-ethyl-1,2,4-oxadiazol-3-yl)-2,3-dihydro-1H-inden-1-yl)-2-hydroxyoxazole-5-carboxamide]
8 | 300 | 1100 | CCc1nc(-c2ccc3c(c2)CC[C@H]3NC(=O)c2ocnc2C(F)(F)F)no1 [Compound 639, (R)-N-(5-(5-ethyl-1,2,4-oxadiazol-3-yl)-2,3-dihydro-1H-inden-1-yl)-4-(trifluoromethyl)oxazole-5-carboxamide]
9 | 500 | 2100 | CCc1nc(-c2ccc3c(c2)CC[C@H]3NC(=O)c2ncc(C)s2)no1 [Compound 640, (R)-N-(5-(5-ethyl-1,2,4-oxadiazol-3-yl)-2,3-dihydro-1H-inden-1-yl)-5-methylthiazole-2-carboxamide]
10 | 1400 | 5700 | CCc1nc(-c2ccc3c(c2)CC[C@H]3NC(=O)c2ccc(=O)n(CC)c2)no1 [Compound 641, (R)-1-ethyl-N-(5-(5-ethyl-1,2,4-oxadiazol-3-yl)-2,3-dihydro-1H-inden-1-yl)-6-oxo-1,6-dihydropyridine-3-carboxamide]
11 | 1400 | 5800 | CCc1nc(-c2ccc3c(c2)CC[C@H]3NC(=O)c2ccc(C)cn2)no1 [Compound 642, (R)-N-(5-(5-ethyl-1,2,4-oxadiazol-3-yl)-2,3-dihydro-1H-inden-1-yl)-5-methylpicolinamide]
12 | 600 | 2100 | CCc1nc(-c2ccc3c(c2)CC[C@H]3NC(=O)c2ncncc2C)no1 [Compound 643, (R)-N-(5-(5-ethyl-1,2,4-oxadiazol-3-yl)-2,3-dihydro-1H-inden-1-yl)-5-methylpyrimidine-4-carboxamide]
13 | 1500 | 5900 | Cn1cc(C(=O)N[C@@H]2CCc3cc(-c4noc(C(F)F)n4)ccc32)ccc1=O [Compound 644, (R)-N-(5-(5-(difluoromethyl)-1,2,4-oxadiazol-3-yl)-2,3-dihydro-1H-inden-1-yl)-1-methyl-6-oxo-1,6-dihydropyridine-3-carboxamide]
14 | 1600 | 7000 | Cn1cc(C(=O)N[C@@H]2CCc3cc(-c4noc(C5CCC5)n4)ccc32)ccc1=O [Compound 645, (R)-N-(5-(5-cyclobutyl-1,2,4-oxadiazol-3-yl)-2,3-dihydro-1H-inden-1-yl)-1-methyl-6-oxo-1,6-dihydropyridine-3-carboxamide]
15 | 2200 | 9000 | [2H]C([2H])([2H])c1nc(-c2ccc3c(c2)CC[C@H]3NC(=O)c2ccc(=O)n(C)c2)no1 [Compound 646, (R)-1-methyl-N-(5-(5-(methyl-d3)-1,2,4-oxadiazol-3-yl)-2,3-dihydro-1H-inden-1-yl)-6-oxo-1,6-dihydropyridine-3-carboxamide]
16 | 300 | 900 | CCc1nc(-c2ccc3c(c2)CC[C@H]3NC(=O)c2ccnc(Cl)c2)no1 [Compound 647, (R)-2-chloro-N-(5-(5-ethyl-1,2,4-oxadiazol-3-yl)-2,3-dihydro-1H-inden-1-yl)isonicotinamide]
17 | 400 | 1300 | CCc1nc(-c2ccc3c(c2)CC[C@H]3NC(=O)c2cccc(C(=O)OC)c2)no1 [Compound 648, Methyl (R)-3-((5-(5-ethyl-1,2,4-oxadiazol-3-yl)-2,3-dihydro-1H-inden-1-yl)carbamoyl)benzoate]
18 | 900 | 3400 | CCc1nc(-c2ccc3c(c2)CC[C@H]3NC(=O)c2cc(CO)ccc2F)no1 [Compound 649, (R)-N-(5-(5-ethyl-1,2,4-oxadiazol-3-yl)-2,3-dihydro-1H-inden-1-yl)-2-fluoro-5-(hydroxymethyl)benzamide]
19 | 600 | 2200 | CCc1nc(-c2ccc3c(c2)CC[C@H]3NC(=O)c2cnnc(C)c2)no1 [Compound 650, (R)-N-(5-(5-ethyl-1,2,4-oxadiazol-3-yl)-2,3-dihydro-1H-inden-1-yl)-6-methylpyridazine-4-carboxamide]
20 | 4600 | 22600 | CCc1nc(-c2ccc3c(c2)CC[C@H]3NC(=O)c2cc(CO)ccc2C)no1 [Compound 651, (R)-N-(5-(5-ethyl-1,2,4-oxadiazol-3-yl)-2,3-dihydro-1H-inden-1-yl)-5-(hydroxymethyl)-2-methylbenzamide]
21 | 500 | 1500 | CCc1nc(-c2ccc3c(c2)CC[C@H]3NC(=O)c2cc(CO)ccn2)no1 [Compound 652, (R)-N-(5-(5-ethyl-1,2,4-oxadiazol-3-yl)-2,3-dihydro-1H-inden-1-yl)-4-(hydroxymethyl)picolinamide]
22 | 200 | 700 | CCc1nc(-c2ccc3c(c2)CC[C@H]3NC(=O)c2cccc(CO)c2)no1 [Compound 653, (R)-N-(5-(5-ethyl-1,2,4-oxadiazol-3-yl)-2,3-dihydro-1H-inden-1-yl)-3-(hydroxymethyl)benzamide]
23 | 600 | 2200 | CCc1nc(-c2ccc3c(c2)CC[C@H]3NC(=O)c2cccc(CO)c2F)no1 [Compound 654, (R)-N-(5-(5-ethyl-1,2,4-oxadiazol-3-yl)-2,3-dihydro-1H-inden-1-yl)-2-fluoro-3-(hydroxymethyl)benzamide]
24 | 600 | 1900 | C=Cc1cc(C(=O)N[C@@H]2CCc3cc(-c4noc(CC)n4)ccc32)ccn1 [Compound 655, (R)-N-(5-(5-ethyl-1,2,4-oxadiazol-3-yl)-2,3-dihydro-1H-inden-1-yl)-2-vinylisonicotinamide]
